Measured values from patent publication US10703723B2 (Truly Translational Sweden AB, priority 2017, dated 2020).
Where two headings read alike, the source gives them in different places.

Legend:
[1] = appearance of test formulations / solubility over time in PBC buffer (pH 7.4); type: physicochemical; conditions: 0.5% CMC in phosphate buffer (pH 7.4)
[2] = solubility in de-ionized water at rt after 24 h; conditions: thermodynamic from solid
Procedure: The produced examples were characterized regarding identity, crystal modification, thermal properties, melting point, solubility in water, purity, and hygroscopicity using the following methods:
The flow rate was 1.0 mL/min, injection volume 5 μL and detection wavelengths 358 nm (for assay) and 260 nm (for chromatographic purity). Quantitation was performed using external standard methodology. The assay method has been validated with respect to selectivity, repeatability and linearity.

[3] = in vivo; conditions: rat, po, 40 mg/kg
Procedure: In accordance with Swedish legislations for preclinical in vivo studies in rodents and following evaluation and approval of the experimental procedures the local ethical committee (M388-12), following acclimatization to the housing conditions for a minimum of 7 days after arrival, male Wistar (Hannover) rats (Taconic, Denmark), average weight 300 g; average age 8-10 weeks, were treated with test items (see table 1); 12-16 h prior to dosing all food except for an amount equivalent to a half day consumption was removed. […] The rats were conscious during sample collection and the blood was taken from the sub-lingual vein. Blood samples were collected from each rat over a period of up to 24 h. At each time point two aliquots of 50 μL each was added to a vial containing 150 μL of sterile water. The samples were mixed immediately and stored in −18° C. until preparation for bioanalysis commenced. All formulations were prepared on the same day that dosing took place. The body weight of the rat was recorded before dosing. The weight of the syringe was recorded before and after administration to allow calculation of the actual amount of test sample delivered. Actual dose administered was used during the evaluation of the data.
Samples and standards were injected by a HTC PAL from CTC analytics into an LC system from Shimadzu consisting of a high pressure gradient system of two LC-10 AD pumps controlled by a SCL-10A controller from Shimadzu. The samples were separated using reverse-phase chromatography with gradient elution at a flow rate of 0.8 mL/min. Mobile phases were A:94.9/5/0.1 water/acetonitrile/formic acid and B:5/94.9/0.1 water/acetonitrile/formic acid. Gradient started at 0% B and increased linearly to 100% B in 4 minutes, 100% B was kept for 0.5 minutes and then the system returned to 0% B in 0.1 minutes. The system was equilibrated for 1.4 minutes until the total run time of 6 minutes. The eluent was analyzed by a Quattro Ultima from Micromass equipped with an electrospray ion source. Data was collected and calibrations were calculated by MassLynx 4.0 software. […] The eluent was ionized by negative ion electrospray and the mrm transition from 397 to 197 m/z was monitored.
The diluted blood sample (50 μL blood, 150 μL water) was thawed and mixed. 400 μL of acetonitrile, to precipitate the protein was added and mixed again. The sample was centrifuged at 5000 g for 5 minutes. 100 μL of the supernatant was transferred to a 300 μL glass vial and 100 μL of water was added to reduce the acetonitrile concentration.
The concentration of the standard curve was in the range from 5 nM to 15625 nM. Samples with analyte concentrations above the upper limit of quantification were diluted with matrix to reach within the assay range. A non-compartmental analysis (NCA) was performed using the Phoenix WinNonLin analysis tool.

[4] = ambient temperature; cited from earlier work
[5] = cited from earlier work; for time to steady state levels: sulfasalazine therapy
[6] = RA, 24 weeks, cited from earlier work

solubility at 24 h [2]	SMILES	Appearance of test formulations t = 0 h [1]	Appearance of test formulations t = 4 h [1]	Ratio SP to SSZ for AUC0-4 h (h*nmol/L) [3]	Ratio SP to SSZ for Cmax (nmol/L) [3]	also measured
> 5000 µg/mL	O=C(OCC(=O)N1CCOCC1)c1cc(/N=N/c2ccc(S(=O)(=O)Nc3ccccn3)cc2)ccc1O [Compound 1a, 2-morpholino-2-oxoethyl-2-hydroxy-5-((4-(N-(pyridine-2-yl)sulfamoyl)phenyl)diazenyl) benzoate]	clear solution	clear solution	–	–	–
> 5000 µg/mL	CNC(=O)COC(=O)c1cc(/N=N/c2ccc(S(=O)(=O)Nc3ccccn3)cc2)ccc1O [Compound 2a, 2-(methylamino)-2-oxoethyl-2-hydroxy-5-((4-(N-(pyridine-2-yl)sulfamoyl)phenyl)diazenyl) benzoate]	clear solution	clear solution	–	–	–
–	CC(C)NC(=O)COC(=O)c1cc(N=Nc2ccc(S(=O)(=O)Nc3ccccn3)cc2)ccc1O [Compound 2d, 2-(isopropylamino)-2-oxoethyl-2-hydroxy-5-((4-(N-(pyridine-2-yl)sulfamoyl)phenyl)diazenyl) benzoate]	clear solution	clear solution	2:1	2:1	–
–	O=C(COC(=O)c1cc(N=Nc2ccc(S(=O)(=O)Nc3ccccn3)cc2)ccc1O)NCC1CC1 [Compound 2f, 2-((cyclopropylmethyl)amino)-2-oxoethyl-2-hydroxy-5-((4-(N-(pyridine-2-yl)sulfamoyl)phenyl)diazenyl) benzoate]	clear solution	milky	6:1	2:1	–
–	COCCNC(=O)COC(=O)c1cc(N=Nc2ccc(S(=O)(=O)Nc3ccccn3)cc2)ccc1O [Compound 2h, 2-(2-methoxylethyl)amino)-2-oxoethyl-2-hydroxy-5-((4-(N-(pyridine-2-yl)sulfamoyl)phenyl)diazenyl) benzoate]	clear solution	clear solution	8:1	6:1	–
> 500 µg/mL	CN(C)C(=O)COC(=O)c1cc(/N=N/c2ccc(S(=O)(=O)Nc3ccccn3)cc2)ccc1O [Compound 3a, 2-(dimethylamino)-2-oxoethyl-2-hydroxy-5-((4-(N-(pyridine-2-yl)sulfamoyl)phenyl)diazenyl) benzoate]	clear solution	milky	–	–	–
–	CCN(CC)C(=O)COC(=O)c1cc(N=Nc2ccc(S(=O)(=O)Nc3ccccn3)cc2)ccc1O [Compound 3b, 2-(diethylamino)-2-oxoethyl-2-hydroxy-5-((4-(N-(pyridine-2-yl)sulfamoyl)phenyl)diazenyl) benzoate]	clear solution	clear solution	8:1	5:1	–
> 1000 µg/mL	CCN(C)C(=O)COC(=O)c1cc(/N=N/c2ccc(S(=O)(=O)Nc3ccccn3)cc2)ccc1O [Compound 4a, 2-(ethyl(methyl)amino)-2-oxoethyl-2-hydroxy-5-((4-(N-(pyridine-2-yl)sulfamoyl)phenyl)diazenyl) benzoate]	clear solution	clear solution	–	–	–
–	O=C(O)c1cc(/N=N/c2ccc(S(=O)(=O)Nc3ccccn3)cc2)ccc1O [Sulfasalazine, 2-hydroxy-5-[2-[4-[(2-pyridinylamino)sulfonyl]phenyl]diazenyl]-benzoic acid]	–	–	–	–	Tmax ([3]; male, Wistar (Hannover)): 0.25 h; Tmax for SP ([3]; male, Wistar (Hannover)): 4 h; water solubility [4]: less than 0.05 mg/mL; time to steady state levels of sulfasalazine ([5]; multiple dosing): ≤ 24 h; overall clinical status ([6]; fast acetylators, 3 g/day): marked improvement; overall clinical status ([6]; slow acetylators, half of the SSZ dose (1.5 g/d)): remained unchanged
–	CC(=O)Nc1ccc(S(=O)(=O)Nc2ccccn2)cc1 [acetylated sulfapyridine]	–	–	–	–	time to steady state levels [5]: 72 h
–	Nc1ccc(S(=O)(=O)Nc2ccccn2)cc1 [sulfapyridine]	–	–	–	–	elimination half-life ([5]; fast acetylators): 5.5 h; total plasma clearance ([5]; fast acetylators): 135.3 mL/min; time after which metabolite can be detected in the plasma ([5]; following oral administration of sulfasalazine): about 10 hours; plasma protein binding ([5]; no difference between fast and slow acetylators): ca. 50 °; elimination half-life ([5]; slow acetylators): 15.3 h; total plasma clearance ([5]; slow acetylators): 36.9 mL/min; time to steady state levels [5]: 72 h
